Assay: pharmacokinetic analysis in Calu-6 tumor–bearing mice
Assay type: in vivo, mouse
Conditions: 30-mg/kg oral dose
Procedure: by determining the absorbance at 570 nm of SRB stain dissolved in Tris base (10 mM, pH 10.5) using a spectrophotometer (BMG Labtech).
In vivo pharmacokinetic analyses
All animal experiments were performed in accordance with the Animals (Scientific Procedures) 1986 Act. 8-9 week old mice were purchased from Charles River Laboratories and housed under specific pathogen-free conditions under 12 hour light/dark cycles.
Female CD-1, CD-1 nude, BALB/c nude and C57BL/6 mice were treated with NU5455 (30 or 100 mg/kg prepared in 1% (v/v) acetic acid or NMP:Encapsin (30% aq):PEG4000 (1:6:3 v/v/v) dosed by oral gavage. Blood samples were collected into heparinized tubes at 15, 30, 60, 180 and 360 minutes post-gavage.
Blood samples were centrifuged at 6700 x g for 3 minutes, the plasma removed and stored at -20°C prior to analysis for drug by HPLC with fluorescence detection. Aliquots of plasma (50 µl) were vigorously vortexed with acetonitrile (450 µl) and the precipitate removed by centrifugation at 6700 x g for 5 minutes. […]
Samples (20 µl) were applied to a 10 x 0.46 cm Genesis C18 4 µm column (Grace Vydac) fitted with an in-line filter. […] Analytes were detected by fluorescence at 390 nm following excitation at 242 nm. Plasma concentrations were determined using linear standard curves (0.01 µM – 10 µM, R2 > 0.98) generated by extracting compounds from […]

## CN(C(=O)CN1CCOCC1)c1ccc2sc3c(-c4cccc5c(=O)cc(N6CC7CCC(C6)O7)oc45)cccc3c2c1 [NU5455]
  period NU5455 concentrations in plasma, lung, tumor, or surrounding skin maintained at approximately 1 μM (0.6 μg/mL or μg/g tissue) or above: 3 h

From paper PMC6934184, “Selective DNA-PKcs inhibition extends the therapeutic index of localized radiotherapy and chemotherapy” (The Journal of Clinical Investigation, 2019)
